The values below come from patent US10308643B2, “Heterocyclic compound” (Takeda Pharmaceutical Company Limited, priority 2015, dated 2019).

Assay type in all cases: biochemical
The target of one test is T1, HDAC6 enzyme (Homo sapiens, UniProt Q9UBN7).
T1 construct: transducing full length HDAC1 and HDAC6 genes into Sf-9 insect cells; GST; purchased SignalChem; host or cells: Sf-9 insect cells
T1 sequence (Q9UBN7 1-1215): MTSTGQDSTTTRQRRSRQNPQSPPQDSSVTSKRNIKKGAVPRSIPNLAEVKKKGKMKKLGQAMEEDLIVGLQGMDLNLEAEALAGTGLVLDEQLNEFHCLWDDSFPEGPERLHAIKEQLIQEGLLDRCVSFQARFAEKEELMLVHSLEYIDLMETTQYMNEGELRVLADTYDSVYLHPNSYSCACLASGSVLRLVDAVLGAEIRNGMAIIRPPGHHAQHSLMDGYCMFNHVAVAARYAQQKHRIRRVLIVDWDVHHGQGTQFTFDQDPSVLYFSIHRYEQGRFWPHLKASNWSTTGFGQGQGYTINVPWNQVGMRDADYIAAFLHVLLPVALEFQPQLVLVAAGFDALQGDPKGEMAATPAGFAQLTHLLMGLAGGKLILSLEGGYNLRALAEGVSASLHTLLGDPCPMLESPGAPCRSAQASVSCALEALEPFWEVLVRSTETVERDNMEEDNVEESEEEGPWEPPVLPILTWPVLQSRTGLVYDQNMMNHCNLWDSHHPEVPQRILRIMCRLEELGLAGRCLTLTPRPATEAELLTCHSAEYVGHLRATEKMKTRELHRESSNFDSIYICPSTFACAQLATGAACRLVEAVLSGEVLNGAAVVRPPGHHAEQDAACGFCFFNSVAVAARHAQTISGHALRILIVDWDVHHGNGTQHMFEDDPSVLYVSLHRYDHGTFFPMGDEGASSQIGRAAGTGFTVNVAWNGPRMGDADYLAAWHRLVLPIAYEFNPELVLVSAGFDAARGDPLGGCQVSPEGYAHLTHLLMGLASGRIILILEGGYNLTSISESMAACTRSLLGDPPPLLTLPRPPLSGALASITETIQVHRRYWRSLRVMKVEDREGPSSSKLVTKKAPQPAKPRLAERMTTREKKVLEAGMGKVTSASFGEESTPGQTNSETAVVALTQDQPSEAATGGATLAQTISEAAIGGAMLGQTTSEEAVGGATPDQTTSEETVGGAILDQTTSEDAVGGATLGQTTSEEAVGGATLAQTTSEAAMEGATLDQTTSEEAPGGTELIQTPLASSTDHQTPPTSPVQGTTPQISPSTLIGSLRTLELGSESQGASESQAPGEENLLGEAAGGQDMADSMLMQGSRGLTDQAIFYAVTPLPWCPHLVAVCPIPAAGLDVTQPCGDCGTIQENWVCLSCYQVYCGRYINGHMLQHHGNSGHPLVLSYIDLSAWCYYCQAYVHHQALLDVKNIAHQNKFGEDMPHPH
Briefly: HDAC1/6 Enzyme Inhibitory Assay (HDAC-Glo I/II Assay kit), HDAC6. As to conditions: 1 μM test compound, wells without enzyme = 100% inhibition; for inhibition at 1 µM: read-out: HDAC6 inhibitory rate (%) (1 μM). The procedure:
(§1) HDAC1/6 Enzyme Inhibitory Assay
(§2) HDAC1 enzyme and HDAC6 enzyme each prepared by transducing full length HDAC1 and HDAC6 genes into Sf-9 insect cells and purifying by GST affinity column were purchased from SignalChem. Using these enzymes, HDAC1 and/or HDAC6 enzyme inhibitory activities of the compound of the present invention were evaluated. Enzymes were used after preserved at −70° C. HDAC1 or HDAC6 enzyme inhibitory activity of the compound of the present invention was measured using HDAC-Glo™ I/II Assay kit (Promega) according to the following experimental method. The test compound diluted with assay buffer (24 mM Tris-HCl (pH 7.5), 1 mM MgCl2, 0.35 mM KCl, 135 mM NaCl, 0.6 mM Glutathione, 0.01% Tween-20) was added to a 384-well plate by each 2 μL. Then, HDAC1 or HDAC6 enzyme solution diluted with assay buffer was added thereto by each 4 μL, and the plate was incubated at room temperature for 60 min. After incubated, HDAC substrate-Developer solution prepared according to Promega protocol attached to the assay kit was added to the 384-well plate by each 2 μL, and the enzyme reaction was started. After reacting at room temperature for 20 min, luminescence level was measured using plate reader Envision (PerkinElmer). The inhibitory activity of each compound was calculated as a relative activity value when luminescence level in wells without enzyme is considered as 100% inhibition.

A further test concerns the target T2, HDAC9 enzyme (Homo sapiens, UniProt Q9UKV0).
T2 construct: transducing full length HDAC9 gene into Sf-9 insect cells; made in house; host or cells: Sf-9 insect cells
Briefly: HDAC9 Enzyme Inhibitory Assay (HDAC-Glo class IIa). As to conditions: 1 μM test compound, wells without enzyme = 100% inhibition; for inhibition at 1 µM: read-out: HDAC9 inhibitory rate (%) (1 μM). The procedure:
HDAC9 Enzyme Inhibitory Assay
Enzyme was prepared by transducing full length HDAC9 gene into Sf-9 insect cells and purifying by Ni-NTA affinity column, and HDAC9 enzyme inhibitory activity was evaluated. Enzymes were used after preserved at −70° C. HDAC9 enzyme inhibitory activity of the test compound was measured using HDAC-Glo class IIa (Promega) according to the following experimental method. The test compound diluted with assay buffer (24 mM Tris-HCl (pH 7.5), 1 mM MgCl2, 0.35 mM KCl, 135 mM NaCl, 0.6 mM Glutathione, 0.01% Tween-20) was added to a 384-well plate by each 2 μL. Then, HDAC9 enzyme solution diluted with assay buffer was added thereto by each 2 μL, and the plate was incubated at room temperature for 60 min. After incubated, HDAC substrate-Developer solution prepared according to Promega protocol was added to the 384-well plate by each 4 μL, and the enzyme reaction was started. After reacting at room temperature for 20 min, luminescence level was measured using plate reader Envision (PerkinElmer). The inhibitory activity of each compound was calculated as a relative activity value when luminescence level in wells without enzyme is considered as 100% inhibition.

The target in another test is T3, HDAC1 enzyme (Homo sapiens, UniProt Q13547).
T3 construct: transducing full length HDAC1 and HDAC6 genes into Sf-9 insect cells; GST; purchased SignalChem; host or cells: Sf-9 insect cells
T3 sequence (Q13547 whole entry): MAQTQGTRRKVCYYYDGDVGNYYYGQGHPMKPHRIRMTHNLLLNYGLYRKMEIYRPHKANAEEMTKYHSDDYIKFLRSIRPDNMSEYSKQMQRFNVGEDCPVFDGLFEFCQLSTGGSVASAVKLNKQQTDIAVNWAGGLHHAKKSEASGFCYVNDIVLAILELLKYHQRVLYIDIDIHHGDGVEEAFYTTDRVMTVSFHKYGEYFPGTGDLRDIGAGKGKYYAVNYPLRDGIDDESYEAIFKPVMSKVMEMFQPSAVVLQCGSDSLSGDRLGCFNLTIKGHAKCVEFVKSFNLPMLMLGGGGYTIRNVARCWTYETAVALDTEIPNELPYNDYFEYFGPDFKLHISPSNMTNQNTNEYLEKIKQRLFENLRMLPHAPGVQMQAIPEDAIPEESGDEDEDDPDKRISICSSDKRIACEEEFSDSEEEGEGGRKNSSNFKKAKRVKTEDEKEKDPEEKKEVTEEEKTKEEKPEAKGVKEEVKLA
Description: HDAC1/6 Enzyme Inhibitory Assay (HDAC-Glo I/II Assay kit), HDAC1. As to conditions: 1 μM test compound, wells without enzyme = 100% inhibition; for inhibition at 1 µM: read-out: HDAC1 inhibitory rate (%) (1 μM). The procedure: as §1, §2

T2 sequence (Q9UKV0 whole entry, species assumed): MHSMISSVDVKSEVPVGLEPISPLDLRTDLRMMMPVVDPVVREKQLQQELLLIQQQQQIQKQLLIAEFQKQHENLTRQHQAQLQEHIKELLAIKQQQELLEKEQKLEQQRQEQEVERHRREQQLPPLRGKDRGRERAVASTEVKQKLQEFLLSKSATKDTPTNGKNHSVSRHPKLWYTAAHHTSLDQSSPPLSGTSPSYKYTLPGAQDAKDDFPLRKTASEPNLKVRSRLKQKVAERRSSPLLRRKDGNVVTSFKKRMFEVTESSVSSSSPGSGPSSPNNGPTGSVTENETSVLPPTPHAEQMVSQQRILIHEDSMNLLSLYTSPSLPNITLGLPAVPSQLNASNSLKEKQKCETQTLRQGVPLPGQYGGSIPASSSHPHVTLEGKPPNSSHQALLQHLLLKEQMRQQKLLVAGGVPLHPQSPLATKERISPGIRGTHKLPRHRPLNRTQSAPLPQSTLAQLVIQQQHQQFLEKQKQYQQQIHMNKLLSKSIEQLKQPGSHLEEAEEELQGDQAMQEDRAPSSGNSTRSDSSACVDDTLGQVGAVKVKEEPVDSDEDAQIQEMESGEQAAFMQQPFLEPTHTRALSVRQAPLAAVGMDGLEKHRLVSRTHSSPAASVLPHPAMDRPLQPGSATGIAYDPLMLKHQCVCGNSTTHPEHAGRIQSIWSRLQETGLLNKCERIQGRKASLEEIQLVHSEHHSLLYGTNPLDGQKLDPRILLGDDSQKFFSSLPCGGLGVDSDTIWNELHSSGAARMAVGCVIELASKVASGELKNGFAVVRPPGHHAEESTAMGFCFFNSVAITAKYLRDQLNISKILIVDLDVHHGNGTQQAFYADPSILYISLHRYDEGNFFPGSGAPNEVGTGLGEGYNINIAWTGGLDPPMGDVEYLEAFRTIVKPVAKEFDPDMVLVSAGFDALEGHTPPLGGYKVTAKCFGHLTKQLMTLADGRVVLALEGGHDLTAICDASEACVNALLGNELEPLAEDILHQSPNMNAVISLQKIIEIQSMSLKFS

As for `O=C1c2cc(-c3noc(C(F)(F)F)n3)ccc2CN1[C@@H]1CCCC[C@H]1c1ccccc1` (relative stereo) [Example 17, trans-2-(2-phenylcyclohexyl)-6-(5-(trifluoromethyl)-1,2,4-oxadiazol-3-yl)isoindolin-1-one], the inhibition at 1 µM was 98% at HDAC6 enzyme, 85% on HDAC9 enzyme and 52% on HDAC1 enzyme.

On to `O=C1c2cc(-c3noc(C(F)(F)F)n3)ccc2CN1[C@@H]1CCOC[C@H]1c1ccccc1` (relative stereo) [Example 34, trans-2-(3-phenyltetrahydro-2H-pyran-4-yl)-6-(5-(trifluoromethyl)-1,2,4-oxadiazol-3-yl)isoindolin-1-one], for which the inhibition at 1 µM amounted to 99% at HDAC6 enzyme and 96% at HDAC9 enzyme. For the same compound, the “HDAC1 inhibitory rate (%) (1 μM)” value on HDAC1 enzyme turned out to be 90%.

For `O=C1c2cc(-c3noc(C(F)(F)F)n3)ccc2CN1[C@@H]1CCOC[C@H]1c1ccccc1` (relative stereo) [Example 35, trans-2-(3-phenyltetrahydro-2H-pyran-4-yl)-6-(5-(trifluoromethyl)-1,2,4-oxadiazol-3-yl)isoindolin-1-one], at HDAC6 enzyme, the “HDAC6 inhibitory rate (%) (1 μM)” value is reported as 99%. Besides, on HDAC9 enzyme (1 µM), the “HDAC9 inhibitory rate (%) (1 μM)” value turned out to be 91%. The “HDAC1 inhibitory rate (%) (1 μM)” value at HDAC1 enzyme was 50%.

On to `O=C1c2cc(-c3noc(C(F)(F)F)n3)ccc2CN1[C@@H]1CCNC[C@H]1c1ccc(F)cc1` (relative stereo) [Example 45, 2-(trans-3-(4-fluorophenyl)piperidin-4-yl)-6-(5-(trifluoromethyl)-1,2,4-oxadiazol-3-yl)isoindolin-1-one], for which the inhibition at 1 µM on HDAC6 enzyme amounted to 100%; at HDAC9 enzyme, 99%; on HDAC1 enzyme it was 94%.

On to `O=C1c2cc(-c3noc(C(F)(F)F)n3)ccc2CN1[C@@H]1CCNC[C@H]1c1ccc(F)c(F)c1` (relative stereo) [Example 46, 2-(trans-3-(3,4-difluorophenyl)piperidin-4-yl)-6-(5-(trifluoromethyl)-1,2,4-oxadiazol-3-yl)isoindolin-1-one], for which the figures for the inhibition at 1 µM on HDAC6 enzyme, on HDAC9 enzyme and on HDAC1 enzyme were 99%, 99% and 94%, respectively.

On to `Cc1ccc([C@@H]2CNCC[C@H]2N2Cc3ccc(-c4noc(C(F)(F)F)n4)cc3C2=O)cc1` (relative stereo) [Example 47, 2-(trans-3-(4-methylphenyl)piperidin-4-yl)-6-(5-(trifluoromethyl)-1,2,4-oxadiazol-3-yl)isoindolin-1-one], for which the inhibition at 1 µM on HDAC6 enzyme was determined as 95%; at HDAC9 enzyme, 99%; at HDAC1 enzyme it was 90%.

In the case of `Cc1ccc([C@@H]2CNCC[C@H]2N2Cc3ccc(-c4noc(C(F)(F)F)n4)cc3C2=O)cc1F` (relative stereo) [Example 48, 2-(trans-3-(3-fluoro-4-methylphenyl)piperidin-4-yl)-6-(5-(trifluoromethyl)-1,2,4-oxadiazol-3-yl)isoindolin-1-one], the inhibition at 1 µM was found to be 99% on HDAC6 enzyme, 98% at HDAC9 enzyme and 90% on HDAC1 enzyme.

For the compound `Cc1cc([C@@H]2CNCC[C@H]2N2Cc3ccc(-c4noc(C(F)(F)F)n4)cc3C2=O)ccc1F` (relative stereo) [Example 49, 2-(trans-3-(4-fluoro-3-methylphenyl)piperidin-4-yl)-6-(5-(trifluoromethyl)-1,2,4-oxadiazol-3-yl)isoindolin-1-one], the inhibition at 1 µM on HDAC6 enzyme was 100%; at HDAC9 enzyme it was 99%; on HDAC1 enzyme, 96%.

With `Cc1cc(F)ccc1[C@@H]1CNCC[C@H]1N1Cc2ccc(-c3noc(C(F)(F)F)n3)cc2C1=O` (relative stereo) [Example 50, 2-(trans-3-(4-fluoro-2-methylphenyl)piperidin-4-yl)-6-(5-(trifluoromethyl)-1,2,4-oxadiazol-3-yl)isoindolin-1-one], the inhibition at 1 µM on HDAC6 enzyme was 98%; at HDAC9 enzyme, 99%; on HDAC1 enzyme, 93%.

With `O=C1c2cc(-c3noc(C(F)(F)F)n3)ccc2CN1[C@@H]1CCNC[C@H]1c1ccc(Cl)c(F)c1` (relative stereo) [Example 52, 2-(trans-3-(4-chloro-3-fluorophenyl)piperidin-4-yl)-6-(5-(trifluoromethyl)-1,2,4-oxadiazol-3-yl)isoindolin-1-one], the results for the inhibition at 1 µM at HDAC6 enzyme, on HDAC9 enzyme and at HDAC1 enzyme were 97%, 99% and 97%, respectively.

With `O=C1c2cc(-c3noc(C(F)(F)F)n3)ccc2CN1[C@@H]1CCNC[C@H]1c1cccc(Cl)c1` (relative stereo) [Example 53, 2-(trans-3-(3-chlorophenyl)piperidin-4-yl)-6-(5-(trifluoromethyl)-1,2,4-oxadiazol-3-yl)isoindolin-1-one], the inhibition at 1 µM on HDAC6 enzyme is 97%; at HDAC9 enzyme, 99%; on HDAC1 enzyme, 98%.

As to `O=C1c2cc(-c3noc(C(F)(F)F)n3)ccc2CN1[C@@H]1CCNC[C@H]1c1ccc(F)c(Cl)c1` (relative stereo) [Example 54, 2-(trans-3-(3-chloro-4-fluorophenyl)piperidin-4-yl)-6-(5-(trifluoromethyl)-1,2,4-oxadiazol-3-yl)isoindolin-1-one], the inhibition at 1 µM at HDAC6 enzyme was 100%; at HDAC9 enzyme, 99%; on HDAC1 enzyme it was 93%.

With `COc1ccc([C@@H]2CNCC[C@H]2N2Cc3ccc(-c4noc(C(F)(F)F)n4)cc3C2=O)cc1` (relative stereo) [Example 55, 2-(trans-3-(4-methoxyphenyl)piperidin-4-yl)-6-(5-(trifluoromethyl)-1,2,4-oxadiazol-3-yl)isoindolin-1-one], the figures for the inhibition at 1 µM on HDAC6 enzyme, at HDAC9 enzyme and at HDAC1 enzyme were 96%, 99% and 95%, respectively.

As to `Cc1ccc([C@@H]2CNCC[C@H]2N2Cc3ccc(-c4noc(C(F)(F)F)n4)cc3C2=O)cc1Cl` (relative stereo) [Example 56, 2-(trans-3-(3-chloro-4-methylphenyl)piperidin-4-yl)-6-(5-(trifluoromethyl)-1,2,4-oxadiazol-3-yl)isoindolin-1-one], the inhibition at 1 µM on HDAC6 enzyme came out at 97%; on HDAC9 enzyme, 99%; on HDAC1 enzyme, 93%.
